Test: xn = mol fraction of the nth substance listed
Settings: 100 kPa, Liquid; for viscosity: Falling or rolling sphere viscometry; for mass density: Vibrating tube method

C1CCC(C2CCCCC2)CC1 [1,1'-bicyclohexyl] + CC1CCCCC1
Settings	mass density [kg/m3]	viscosity [mPa·s]
293.15 K, x1 = 0.0999	786.65	0.882
293.15 K, x1 = 0.2015	802.4	1.053
293.15 K, x1 = 0.3012	816.38	1.269
293.15 K, x1 = 0.4007	828.96	1.513
293.15 K, x1 = 0.4994	840.4	1.77
293.15 K, x1 = 0.5986	850.98	2.12
293.15 K, x1 = 0.7002	861.06	2.507
293.15 K, x1 = 0.7998	870.05	2.935
293.15 K, x1 = 0.8998	878.51	3.428
293.15 K, x1 = 1	886.39	4.017
298.15 K, x1 = 0.0999	782.49	0.821
298.15 K, x1 = 0.2015	798.27	0.977
298.15 K, x1 = 0.3012	812.39	1.173
298.15 K, x1 = 0.4007	825.06	1.389
298.15 K, x1 = 0.4994	836.55	1.616
298.15 K, x1 = 0.5986	847.21	1.923
298.15 K, x1 = 0.7002	857.36	2.261
298.15 K, x1 = 0.7998	866.41	2.628
298.15 K, x1 = 0.8998	874.87	3.05
298.15 K, x1 = 1	882.79	3.541
303.15 K, x1 = 0.0999	778.28	0.768
303.15 K, x1 = 0.2015	794.17	0.905
303.15 K, x1 = 0.3012	808.39	1.086
303.15 K, x1 = 0.4007	821.14	1.28
303.15 K, x1 = 0.4994	832.74	1.49
303.15 K, x1 = 0.5986	843.46	1.754
303.15 K, x1 = 0.7002	853.63	2.056
303.15 K, x1 = 0.7998	862.73	2.367
303.15 K, x1 = 0.8998	871.23	2.73
303.15 K, x1 = 1	879.19	3.145
308.15 K, x1 = 0.0999	774.06	0.722
308.15 K, x1 = 0.2015	790.07	0.85
308.15 K, x1 = 0.3012	804.38	1.01
308.15 K, x1 = 0.4007	817.21	1.185
308.15 K, x1 = 0.4994	828.85	1.373
308.15 K, x1 = 0.5986	839.63	1.609
308.15 K, x1 = 0.7002	849.8	1.871
308.15 K, x1 = 0.7998	859.05	2.143
308.15 K, x1 = 0.8998	867.6	2.459
308.15 K, x1 = 1	875.6	2.817
313.15 K, x1 = 0.0999	769.83	0.679
313.15 K, x1 = 0.2015	785.95	0.795
313.15 K, x1 = 0.3012	800.36	0.942
313.15 K, x1 = 0.4007	813.28	1.102
313.15 K, x1 = 0.4994	824.98	1.268
313.15 K, x1 = 0.5986	835.85	1.474
313.15 K, x1 = 0.7002	846.15	1.708
313.15 K, x1 = 0.7998	855.37	1.953
313.15 K, x1 = 0.8998	863.97	2.227
313.15 K, x1 = 1	872.01	2.54
318.15 K, x1 = 0.0999	765.59	0.641
318.15 K, x1 = 0.2015	781.82	0.747
318.15 K, x1 = 0.3012	796.34	0.882
318.15 K, x1 = 0.4007	809.35	1.025
318.15 K, x1 = 0.4994	821.14	1.177
318.15 K, x1 = 0.5986	832.06	1.37
318.15 K, x1 = 0.7002	842.45	1.582
318.15 K, x1 = 0.7998	851.7	1.788
318.15 K, x1 = 0.8998	860.35	2.032
318.15 K, x1 = 1	868.43	2.302

C1CCC(C2CCCCC2)CC1 [1,1'-bicyclohexyl] + CCCCC1CCCCC1
Settings	mass density [kg/m3]	viscosity [mPa·s]
293.15 K, x1 = 0.1002	809.11	1.43
293.15 K, x1 = 0.2003	818.37	1.585
293.15 K, x1 = 0.2997	827.41	1.757
293.15 K, x1 = 0.4002	836.41	1.952
293.15 K, x1 = 0.4999	845.11	2.184
293.15 K, x1 = 0.6011	853.76	2.45
293.15 K, x1 = 0.7003	862.14	2.759
293.15 K, x1 = 0.7999	870.34	3.132
293.15 K, x1 = 0.9008	878.53	3.563
293.15 K, x1 = 1	886.39	4.017
298.15 K, x1 = 0.1002	805.38	1.311
298.15 K, x1 = 0.2003	814.66	1.449
298.15 K, x1 = 0.2997	823.71	1.6
298.15 K, x1 = 0.4002	832.69	1.772
298.15 K, x1 = 0.4999	841.44	1.975
298.15 K, x1 = 0.6011	850.11	2.205
298.15 K, x1 = 0.7003	858.51	2.471
298.15 K, x1 = 0.7999	866.72	2.797
298.15 K, x1 = 0.9008	874.92	3.15
298.15 K, x1 = 1	882.79	3.541
303.15 K, x1 = 0.1002	801.64	1.209
303.15 K, x1 = 0.2003	810.94	1.332
303.15 K, x1 = 0.2997	820.01	1.466
303.15 K, x1 = 0.4002	829.01	1.619
303.15 K, x1 = 0.4999	837.77	1.796
303.15 K, x1 = 0.6011	846.46	1.998
303.15 K, x1 = 0.7003	854.87	2.231
303.15 K, x1 = 0.7999	863.09	2.508
303.15 K, x1 = 0.9008	871.31	2.812
303.15 K, x1 = 1	879.19	3.145
308.15 K, x1 = 0.1002	797.9	1.12
308.15 K, x1 = 0.2003	807.21	1.229
308.15 K, x1 = 0.2997	816.31	1.349
308.15 K, x1 = 0.4002	825.32	1.485
308.15 K, x1 = 0.4999	834.1	1.643
308.15 K, x1 = 0.6011	842.81	1.821
308.15 K, x1 = 0.7003	851.24	2.022
308.15 K, x1 = 0.7999	859.47	2.272
308.15 K, x1 = 0.9008	867.7	2.53
308.15 K, x1 = 1	875.6	2.817
313.15 K, x1 = 0.1002	794.15	1.041
313.15 K, x1 = 0.2003	803.48	1.139
313.15 K, x1 = 0.2997	812.6	1.247
313.15 K, x1 = 0.4002	821.64	1.368
313.15 K, x1 = 0.4999	830.43	1.508
313.15 K, x1 = 0.6011	839.15	1.665
313.15 K, x1 = 0.7003	847.6	1.844
313.15 K, x1 = 0.7999	855.85	2.061
313.15 K, x1 = 0.9008	864.1	2.288
313.15 K, x1 = 1	872.01	2.54
318.15 K, x1 = 0.1002	790.39	0.971
318.15 K, x1 = 0.2003	799.75	1.059
318.15 K, x1 = 0.2997	808.89	1.157
318.15 K, x1 = 0.4002	817.94	1.265
318.15 K, x1 = 0.4999	826.76	1.391
318.15 K, x1 = 0.6011	835.5	1.532
318.15 K, x1 = 0.7003	843.97	1.689
318.15 K, x1 = 0.7999	852.23	1.883
318.15 K, x1 = 0.9008	860.5	2.082
318.15 K, x1 = 1	868.43	2.302

— the NIST ThermoML archive (doi:10.1021/je500275j)
